Values of other authors in patent US20250025420A1, “TERNARY CO-AMORPHOUS FORMS OF DRUGS, PROTEINS, AND WATER-SOLUBLE POLYMERS” (Zerion Pharma APS, priority 2021, published 2025).

Details: stated in Materials

In the case of `C=C(C)[C@@H]1CCC(C)=C[C@H]1c1c(O)cc(CCCCC)cc1O` [Cannabidiol], the pKa is listed as 9.7.
For `C=CC(=O)N1CCC[C@@H](n2nc(-c3ccc(Oc4ccccc4)cc3)c3c(N)ncnc32)C1` [Ibrutinib], the pKa is given as 3.74.
